Experimental data taken from publication PMC13249053, “Mechanism of auranofin toxicity: Inhibition of tetrahydrobiopterin metabolism” (Toxicology and applied pharmacology, 2025).

Molecular target: SPR (Homo sapiens, UniProt P35270)
Assay: BH2 and BH4 production from sepiapterin in intact HaCaT cells (HPLC)
Format: cell-based
Design: endogenous in cells; host or cells: HaCaT, Jurkat, BeWo, SKNMC, CX-1
Conditions: auranofin 2 h, then 100 μM sepiapterin 3 h, read-out: IC50, inhibition of SPR (BH2+BH4 formation) in intact HaCaT cells
Description: The growth medium was then removed and the cells incubated with growth medium containing 100 μM sepiapterin. […] BH2 and BH4 were then analyzed on a Jasco high-performance liquid chromatography system (Easton, MD) fitted with a Maxsil-10 C18 column (250 × 4 mm; Phenomenex, Torrance, CA). […] Cell viability following drug treatments was greater than 95 %.
Fig. 3. Effects of auranofin on BH2 and BH4 production in intact HaCaT cells treated with sepiapterin. HaCaT cells (~1 × 10^6 cells/well in 6 well culture plates) were incubated with control medium or medium containing increasing concentrations of auranofin for 2 h followed by 100 μM sepiapterin. After an additional 3 h, BH2 and BH4 were extracted from the cells and analyzed by HPLC with fluorescence detection. Left panel: Chromatograms showing BH2 and BH4 content of control cells and cells treated with Auranofin.

SPR, sequence (P35270 whole entry): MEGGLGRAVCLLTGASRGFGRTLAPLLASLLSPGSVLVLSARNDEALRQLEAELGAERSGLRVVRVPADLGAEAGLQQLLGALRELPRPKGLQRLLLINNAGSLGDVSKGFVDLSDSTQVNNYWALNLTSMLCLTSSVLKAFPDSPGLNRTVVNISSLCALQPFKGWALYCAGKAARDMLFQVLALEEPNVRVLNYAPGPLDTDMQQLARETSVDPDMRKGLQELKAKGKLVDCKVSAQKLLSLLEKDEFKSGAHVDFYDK

CC[PH](CC)(CC)[Au][S][C@@H]1O[C@H](COC(C)=O)[C@@H](OC(C)=O)[C@H](OC(C)=O)[C@H]1OC(C)=O [auranofin, 2,3,4,6-tetra-O-acetyl-1-thio-β-D-glucopyranosato-S-triethyl phosphine gold]
IC50: 12.8 µM
